Data reported in patent publication US10272055B2, “Therapeutic compounds and methods” (Regents of the University of Minnesota, priority 2014, dated 2019).
Values joined by “and” are separate entries in the source; they are usually repeats but may differ in a detail not shown here. Equal entries are not always repeated. “Also recorded” adds a separate entry of the source.

Tests used:
[1] = target: CYP3A4 epoxygenase (Homo sapiens, UniProt P08684); experiment: CYP3A4 Supersome epoxygenase assay: EET synthesis from arachidonic acid, LC-ESI-MS/MS
Chain of CYP3A4 epoxygenase (P08684 whole entry): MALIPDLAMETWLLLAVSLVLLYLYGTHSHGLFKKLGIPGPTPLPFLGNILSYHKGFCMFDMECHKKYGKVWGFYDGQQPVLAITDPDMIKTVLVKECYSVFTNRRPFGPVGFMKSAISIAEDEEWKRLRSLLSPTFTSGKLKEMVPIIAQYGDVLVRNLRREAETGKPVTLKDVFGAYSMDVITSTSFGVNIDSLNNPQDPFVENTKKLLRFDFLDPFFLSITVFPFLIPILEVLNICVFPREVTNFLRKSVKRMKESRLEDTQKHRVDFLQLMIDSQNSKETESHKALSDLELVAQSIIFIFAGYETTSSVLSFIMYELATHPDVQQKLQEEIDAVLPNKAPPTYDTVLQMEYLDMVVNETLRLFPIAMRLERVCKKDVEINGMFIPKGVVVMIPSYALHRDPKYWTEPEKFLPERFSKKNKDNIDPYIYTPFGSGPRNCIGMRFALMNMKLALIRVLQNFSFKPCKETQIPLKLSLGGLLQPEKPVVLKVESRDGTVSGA
Method: Measurements are reported as percentage of control reactions performed with vehicle but no compound. A ^13C-EET recovery standard was used to control for recovery of EETs from extractions. […] EET measurements in these Supersome experiments are expressed as percentage of control reactions. Absolute EET measurements are determined by subtraction of regioisomer values in a baseline reaction lacking NADPH. Measurements were performed in triplicate and values are expressed as the mean±SD.
After the reaction, EETs were then extracted with 1 mL dichloromethane and reconstituted in methanol and analyzed by LC-ESI-MS/MS.

[2] = system: MCF-7 xenograft; experiment: MCF-7 xenograft in nude mice; assay type: in vivo; details: HBB 4 mg/kg ip daily vs PBS/vehicle
Method: (§1) FIG. 3A. MCF-7 xenograft with 3×10^6 cells in the 2nd mammary fat pad on day 0. HBB (4 mg/kg ip daily) (ν) or PBS (ρ) treatment began on day 1. * indicates P<0.05. FIG. 3B. MDAMB-231 xenograft with 1×10^6 cells in the 2nd mammary fat pad on day 0. HBB (4 mg/kg ip daily) (ν) or PBS (ρ) treatment began on day 1. N=20 mice per arm for each study; error bars are SEM.
MCF-7 cells were implanted in the mammary fat pad of 4-5 week mice and treatment was initiated when tumor size was ≥15 mm^3 by 2 sequential measurements with randomized assignment to the treatment arms.
(§2) FIG. 44A. Nude mice were inoculated with 3×10^6 MCF-7 cells and treated with vehicle (Δ) HBB at the MTD (4 mg/kg/day ip) (▪). (* indicates P<0.05). Error bars are SEM. […] The dose limiting toxicity was weight loss. At the MTD there was a well-tolerated 4% reduction of weight at 42 days (P<0.0001; data not shown). FIG. 44B. Nude mice were inoculated with 1×10^6MDA-MB-231 cells and treated with HBB at the MTD (4 mg/kg/day ip).

[3] = system: breast cancer cells and primary cells; experiment: OCR and ECAR, XF Extracellular Flux Analyzer; assay type: cell-based; details: HBB 20 uM or 40 uM vs DMSO
Method: Measuring glycolysis and oxidative metabolism. Cells were maintained in growth medium consisting of 10% FBS, at 37° C. with 5% CO2 and seeded at 100,000 cells per well in XF24-well cell culture microplates (for primary cells HUVEC and HDMVEC, plates were pre-coated with 0.2% college before seeding). Concentrated stocks of HBB was prepared in DMSO. HBB was diluted to 10× working concentration in XF assay medium (a non-buffered medium including 2 mM of L-glutamine but no sodium bicarbonate (buffering agent), glucose, or sodium pyruvate).
Before analysis, the cells were switched from culture medium to XF assay medium. Following baseline measurements, 75 μl of HBB prepared in assay medium was injected into each well to reach final working concentrations. Following the addition of HBB, OCR and ECAR were measured at fixed time interval.
Cells were maintained in growth medium consisting of 10% FBS, at 37° C. with 5% CO2 and seeded at 100,000 cells per well in XF24-well cell culture microplates (for HUVEC, plates were pre-coated with 0.2% college before seeding). Before analysis, the cells were switched from culture medium to XF assay medium. Following baseline measurements, 75 μl of HBB prepared in assay medium was injected into each well to reach final working concentrations. Following the addition of HBB, OCR and ECAR were measured at fixed interval. […]

[4] = system: MCF-7; experiment: HBB plus paclitaxel combination, MTT, Chou-Talalay analysis; assay type: cell-based; details: MCF-7, HBB vs paclitaxel = 800:1, 24 hours
Method: Cells were seeded into 96-well plates at 3,000 cells/well and grown over night. The cells were then treated with different doses of HBB, paclitaxel and combination of the two agents at a constant ratio (HBB vs paclitaxel=800:1). The treatments were conducted for each condition in quadruplicate. […] Combined dose-response curves were fitted to Chou-Talalay lines, and Chou-Talalay combination indices (CIs) were calculated for each fraction affected (Fa) using the equation CI=(D1/Dx1)+(D2/Dx2)+(D1)(D2)/[(Dx1)(Dx2)], where Dx1 and Dx2 are the HBB and paclitaxel doses, respectively, that are required for achieving a particular Fa, and D1 and D2 are the doses of the two agents (combined treatment) required for achieving the same Fa. For each Fa, CI values of 0.8 and 1.2 are cutoffs for synergy and antagonism, respectively (See FIG. 42).

[5] = system: MDA-MB-231 xenograft; experiment: MDA-MB-231 xenograft in nude mice; assay type: in vivo; details: HBB 4 mg/kg ip daily vs PBS/vehicle
Method: as §1, §2

[6] = system: MCF7; experiment: Cell cycle analysis by flow cytometry, MCF7; assay type: cell-based; details: MCF7, HBB 20 uM, 6 hours
Method: Cells in log phase growth treated with HBB (20 uM) or DMSO for 6 hours were trypsinized and fixed in 70% ethanol at 4° C. overnight. The cells were washed with cold PBS and resuspended in Nicoletti buffer (50 μg/ml propidium iodide, 0.1% Triton X-100, 0.1% sodium citrate, pH 7.4, and 1 mg/ml RNase). The samples were then analyzed by flow cytometry (BD Biosciences), and data were analyzed using FlowJo software (Tree Star). Representative profile are shown.

**Q.** `CCCCCCNC(=N)NC(=N)NCc1ccccc1` [HBB, N1-hexyl-N5-benzyl biguanide] was tested. Which IC50 ([1]; IC50, inhibition of CYP3A4 epoxygenase) did it give?
**A.** The IC50 was 110 µM.

**Q.** And the “fold more potent than metformin, CYP3A4 epoxygenase” value ([1]; vs metformin)?
**A.** Its value is 50 fold and ~40 fold.

**Q.** And the “tumor growth, MCF-7 xenograft” value [2]?
**A.** Its value is “significant reduction in early engraftment/tumor growth; also recorded: only in the MCF-7 model; also recorded: inhibits the ER+ MCF-7”.

**Q.** And the “extracellular acidification rate (ECAR)” value [3]?
**A.** The value was “inhibits both OCR and ECAR”.

**Q.** What about the “oxygen consumption rate (OCR)” value [3] of the same compound?
**A.** Its value is “inhibits oxygen consumption rate (OCR); also recorded: inhibits both OCR and ECAR”.

**Q.** And the “combination index plot, HBB with Taxol” value [4]?
**A.** The value was “synergy”.

**Q.** What about the “tumor growth, MDA-MB-231 xenograft” value [5] of the same compound?
**A.** Its value is “tumor growth wasn't inhibited; also recorded: no significant difference between the HBB and vehicle growth curves”.

**Q.** And the cell cycle arrest [6]?
**A.** Its cell cycle arrest is “induces G0/G1 and G2/M cell cycle arrest”.
